Values of other authors in patent US20220370398A1, “METHOD TO DESTABALIZE CYSTEINE EXPOSED INFECTIOUS INFORMATION VECTORS” (priority 2021, published 2022).

Columns and labels:
[1] = in 40% aqueous ethanol solution
[2] = system: bacterial infection; conditions: in vitro, as a vapor

With `C=CCS[S+]([O-])CC=C` (centres unmarked) [2PSP, 2-Propene-1-sulfinothioic acid S-2-propenyl ester] as the compound, how does the solubility [1] read?
The solubility was about 20%.

And the vapor antimicrobial effect [2]?
Its vapor antimicrobial effect is “inhibits bacterial infection”.
